Assay results taken from US9598457B2, “Substituted nucleosides, nucleotides and analogs thereof” (Alios BioPharma, Inc., priority 2012, dated 2017).
Like-named read-outs stand apart in the source and are kept apart here.

What was measured:
[1] = molecular target: human mitochondrial RNA polymerase (Homo sapiens, UniProt O00411); experiment: DdRp assay: incorporation of nucleotides by human mitochondrial RNA polymerase (HMRP); settings: 100 μM of each NTP, single turnover, 30° C., 1 minute; template for GTP analogs
[2] = test system: Huh-7 cells containing the self-replicating, subgenomic HCV replicon; experiment: HCV replicon assay (luciferase reporter); assay type: cell-based; settings: Hepatitis C virus
NS5B570-Con1 (Delta-21) = NS5B570-Con1 (Delta-21) (Hepatitis C virus genotype 1b, UniProt Q9WMX2); experiment: biochemical; set-up: species or system HCV Con-1 strain
[3] = test system: mitochondrial protein synthesis (COX I relative to SDH A) in HepG2 cells

human mitochondrial RNA polymerase, sequence (O00411 42-1230): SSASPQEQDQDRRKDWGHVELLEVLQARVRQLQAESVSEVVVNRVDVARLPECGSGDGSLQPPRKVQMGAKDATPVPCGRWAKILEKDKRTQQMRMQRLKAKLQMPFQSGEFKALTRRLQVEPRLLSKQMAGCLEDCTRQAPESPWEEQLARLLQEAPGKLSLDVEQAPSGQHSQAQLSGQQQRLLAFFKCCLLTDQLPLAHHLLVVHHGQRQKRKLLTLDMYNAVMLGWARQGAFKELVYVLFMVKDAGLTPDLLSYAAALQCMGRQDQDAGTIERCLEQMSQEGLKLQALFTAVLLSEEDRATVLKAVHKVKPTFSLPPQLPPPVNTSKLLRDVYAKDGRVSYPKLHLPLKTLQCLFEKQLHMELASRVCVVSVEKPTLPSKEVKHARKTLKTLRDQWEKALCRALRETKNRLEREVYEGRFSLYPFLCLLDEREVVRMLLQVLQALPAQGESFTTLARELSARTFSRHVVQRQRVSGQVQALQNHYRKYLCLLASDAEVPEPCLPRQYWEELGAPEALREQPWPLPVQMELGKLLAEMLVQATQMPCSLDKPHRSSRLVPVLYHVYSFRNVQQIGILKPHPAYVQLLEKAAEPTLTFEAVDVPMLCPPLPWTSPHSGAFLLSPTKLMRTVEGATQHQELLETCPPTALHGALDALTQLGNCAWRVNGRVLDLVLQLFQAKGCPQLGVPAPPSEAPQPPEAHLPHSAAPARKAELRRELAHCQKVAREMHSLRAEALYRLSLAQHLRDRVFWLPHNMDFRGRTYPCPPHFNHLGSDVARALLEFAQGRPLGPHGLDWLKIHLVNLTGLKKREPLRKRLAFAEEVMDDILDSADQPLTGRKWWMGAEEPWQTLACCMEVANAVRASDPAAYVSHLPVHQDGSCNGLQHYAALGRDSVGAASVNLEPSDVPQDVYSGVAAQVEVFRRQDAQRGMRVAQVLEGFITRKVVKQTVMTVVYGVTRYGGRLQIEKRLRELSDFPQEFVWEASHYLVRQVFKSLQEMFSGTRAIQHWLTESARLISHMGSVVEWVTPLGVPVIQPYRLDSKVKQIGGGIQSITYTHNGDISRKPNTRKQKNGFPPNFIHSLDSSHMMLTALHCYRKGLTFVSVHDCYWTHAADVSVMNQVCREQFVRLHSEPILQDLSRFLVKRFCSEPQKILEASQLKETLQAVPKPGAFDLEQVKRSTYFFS

With `Nc1ncnc2c1ncn2[C@@H]1O[C@H](COP(=O)(O)OP(=O)(O)OP(=O)(O)O)[C@@H](O)[C@H]1O` [ATP] the “incorporation by human mitochondrial RNA polymerase (product band, FIG. 10)” value [1] was “poor substrate for incorporation”.

In the case of `CCOc1nc(N)nc2c1ncn2[C@@H]1O[C@H](COP(=O)(N[C@@H](C)C(=O)OCC(C)(C)C)Oc2ccccc2Cl)[C@@H](F)[C@@]1(C)O` (stereo partly drawn) [Compound 2, (2S)-neopentyl 2-(((((2R,3R,4S,5R)-5-(2-amino-6-ethoxy-1H-purin-9(6H)-yl)-3-fluoro-4-hydroxy-4-methyltetrahydrofuran-2-yl)methoxy)(2-chlorophenoxy)phosphoryl)amino)propanoate], the EC50 ([2]; Huh-7, 72 h) is reported as under 1 µM.

`CCOc1nc(N)nc2c1ncn2[C@@H]1O[C@H](COP(=O)(N[C@@H](C)C(=O)OC2CCCCC2)Oc2ccc(F)c(Cl)c2)[C@@H](F)[C@@]1(C)O` (stereo partly drawn) [Compound 3, (2S)-cyclohexyl 2-(((((2R,3R,4S,5R)-5-(2-amino-6-ethoxy-1H-purin-9(6H)-yl)-3-fluoro-4-hydroxy-4-methyltetrahydrofuran-2-yl)methoxy)(3-chloro-4-fluorophenoxy)phosphoryl)amino)propanoate] gave an EC50 ([2]; Huh-7, 72 h) of under 1 µM.

Molecule `CCOc1nc(N)nc2c1ncn2[C@@H]1O[C@H](COP(=O)(N[C@@H](C)C(=O)OCC(C)(C)C)Oc2ccccc2)[C@@H](F)[C@@]1(C)O` (stereo partly drawn) [Compound 4, (2S)-neopentyl 2-(((((2R,3R,4S,5R)-5-(2-amino-6-ethoxy-1H-purin-9(6H)-yl)-3-fluoro-4-hydroxy-4-methyltetrahydrofuran-2-yl)methoxy)(phenoxy)phosphoryl)amino)propanoate] has an EC50 ([2]; Huh-7, 72 h) of under 1 µM.

With `CCOc1nc(N)nc2c1ncn2[C@@H]1O[C@H](COP(=O)(N[C@@H](C)C(=O)OC2CCCCC2)Oc2ccccc2)[C@@H](F)[C@@]1(C)O` (stereo partly drawn) [Compound 5, (2S)-cyclohexyl 2-(((((2R,3R,4S,5R)-5-(2-amino-6-ethoxy-1H-purin-9(6H)-yl)-3-fluoro-4-hydroxy-4-methyltetrahydrofuran-2-yl)methoxy)(phenoxy)phosphoryl)amino)propanoate] the EC50 ([2]; Huh-7, 72 h) was under 1 µM.

`C[C@@]1(O)[C@H](F)[C@@H](CO)O[C@H]1n1cnc2c(=O)[nH]c(N)nc21` [Compound 6, 2-amino-9-((2R,3S,4R,5R)-4-fluoro-3-hydroxy-5-(hydroxymethyl)-3-methyltetrahydrofuran-2-yl)-1H-purin-6(9H)-one] was tested, and the EC50 ([2]; Huh-7, HCV replicon cells, 72 h, Bright-Glo luciferase, read-out: EC50) was 10 to 100 µM.

For `C[C@H](NP(=O)(OC[C@H]1O[C@@H](n2cnc3c(=O)[nH]c(N)nc32)[C@](C)(O)[C@@H]1F)Oc1ccccc1Cl)C(=O)OCC(C)(C)C` (stereo partly drawn) [Compound 7, (2S)-neopentyl 2-(((((2R,3R,4S,5R)-5-(2-amino-6-oxo-1H-purin-9(6H)-yl)-3-fluoro-4-hydroxy-4-methyltetrahydrofuran-2-yl)methoxy)(2-chlorophenoxy)phosphoryl)amino)propanoate], the EC50 ([2]; Huh-7, 72 h) was 10 to 100 µM.

For `C[C@H](NP(=O)(OC[C@H]1O[C@@H](n2cnc3c(=O)[nH]c(N)nc32)[C@](C)(O)[C@@H]1F)Oc1ccc(F)c(Cl)c1)C(=O)OC1CCCCC1` (stereo partly drawn) [Compound 8, (2S)-cyclohexyl 2-(((((2R,3R,4S,5R)-5-(2-amino-6-oxo-1H-purin-9(6H)-yl)-3-fluoro-4-hydroxy-4-methyltetrahydrofuran-2-yl)methoxy)(3-chloro-4-fluorophenoxy)phosphoryl)amino)propanoate], the EC50 ([2]; Huh-7, 72 h) was 10 to 100 µM.

`C[C@H](NP(=O)(OC[C@H]1O[C@@H](n2cnc3c(=O)[nH]c(N)nc32)[C@](C)(O)[C@@H]1F)Oc1ccccc1)C(=O)OC1CCCCC1` (stereo partly drawn) [Compound 9, (2S)-cyclohexyl 2-(((((2R,3R,4S,5R)-5-(2-amino-6-oxo-1H-purin-9(6H)-yl)-3-fluoro-4-hydroxy-4-methyltetrahydrofuran-2-yl)methoxy)(phenoxy)phosphoryl)amino)propanoate] gave an EC50 ([2]; Huh-7, 72 h) of 1 to 10 µM.

For `CCOc1nc(N)nc2c1ncn2[C@@H]1O[C@H](COP(=O)(N[C@@H](C)C(=O)OC(C)C)Oc2ccccc2)[C@@H](F)[C@@]1(C)O` (stereo partly shown) [Compound 10], the EC50 ([2]; Huh-7, 72 h) was under 1 µM.

`CCOc1nc(N)nc2c1ncn2[C@@H]1O[C@H](COP(=S)(N[C@@H](C)C(=O)OC(C)C)Oc2ccccc2)[C@@H](F)[C@@]1(C)O` (stereo partly shown) [Compound 11] was tested, and the EC50 ([2]; Huh-7, 72 h) was 10 to 100 µM.

Work on `CCOc1nc(N)nc2c1ncn2[C@@H]1O[C@H](COP(=S)(N[C@@H](C)C(=O)OC2CCCCC2)Oc2ccccc2)[C@@H](F)[C@@]1(C)O` (stereo partly shown) [Compound 12] yielded an EC50 ([2]; Huh-7, 72 h) of 1 to 10 µM.

With `CCOc1nc(N)nc2c1ncn2[C@@H]1O[C@H](COP(=S)(N[C@@H](C)C(=O)OCC(C)(C)C)Oc2ccccc2)[C@@H](F)[C@@]1(C)O` (stereo partly shown) [Compound 13] the EC50 ([2]; Huh-7, 72 h) was 1 to 10 µM.

`C[C@@]1(O)[C@H](F)[C@@H](COP(=O)(O)OP(=O)(O)OP(=O)(O)O)O[C@H]1n1cnc2c(=O)[nH]c(N)nc21` [Compound 15] was tested, and the IC50 (NS5B570-Con1 (Delta-21)) was under 1 µM.

In the case of `Cc1cn([C@H]2C=C[C@@H](CO)O2)c(=O)[nH]c1=O` [d4T], the “inhibition of mitochondrial protein synthesis (FIGS. 11A-B)” value [3] is reported as “found not to inhibit mitochondrial protein synthesis”.

In the case of `Nc1ccn([C@H]2CC[C@@H](CO)O2)c(=O)n1` [ddC], the “inhibition of mitochondrial protein synthesis (FIGS. 11A-B)” value [3] is reported as “strongly inhibit mitochondrial protein synthesis”.
